# In ChEMBL document CHEMBL6134767, “Advances in antibacterial agents for Mycobacterium fortuitum” (2025):
# Test system: Mycolicibacterium fortuitum
# Test: Antibacterial activity against Mycobacterium fortuitum assessed as reduction in bacterial growth
# Type: functional
# Settings: not given
row,SMILES,MIC
1,C[C@]12CC[C@@H]3c4ccc(OCCCCCCC[n+]5ccccc5)cc4CC[C@H]3[C@@H]1CCC2=O,3.81 µM
2,CC(C)=CCC/C(C)=C/CNCCNC1C2CC3CC(C2)CC1C3 (stereo not given) [SQ109],3.02 µM
3,CC(C)/C(=C/CN(C)C)CC[C@@H](C)[C@H]1CC[C@H]2C3=CC[C@H]4C[C@@H](N(C)C)CC[C@]4(C)[C@H]3CC[C@]12C,67.2 µM

# Test system: Mycolicibacterium fortuitum
# Test: Antimycobacterial activity against Mycobacterium fortuitum ATCC 6841 assessed as reduction in microbial growth
# Type: functional
# Settings: not given
row,SMILES,MIC
1,O=c1cc(-c2ccc(O)cc2)oc2c([C@@H]3O[C@H](CO)[C@@H](O)[C@H](O)[C@H]3O)c(O)cc(O)c12,69.4 µM
2,O=c1cc(-c2ccc(O)c(O)c2)oc2cc(O)cc(O)c12 [LUTEOLIN],0.12 µM

# Test system: Mycolicibacterium fortuitum
# Test: Antibacterial activity against Mycobacterium fortuitum ATCC 6841 assessed as bacterial growth inhibition incubated for 4 days by CLSI protocol based broth micro-dilution method
# Type: functional
# Settings: ATCC 6841, 96 h, time 4 day
row,SMILES,MIC
1,CC1(C)CCC(Cc2cc(O)c(-c3ccccc3)c(=O)[nH]2)CC1,0.13 µM

# Test system: Mycolicibacterium fortuitum
# Test: Antibacterial activity against Mycobacterium fortuitum ATCC 49404 assessed as bacterial growth inhibition incubated for 72 hrs by CLSI protocol based micro-dilution method
# Type: functional
# Settings: not given
row,SMILES,MIC
1,NCC[C@H](O)C(=O)N[C@@H]1C[C@H](N)[C@@H](O[C@H]2O[C@H](CN)[C@@H](O)[C@H](O)[C@H]2O)[C@H](O)[C@H]1O[C@H]1O[C@H](CO)[C@@H](O)[C@H](N)[C@H]1O [AMIKACIN],5.33 µM

# Test system: Mycolicibacterium fortuitum
# Test: Antimycobacterial activity against Mycobacterium fortuitum ATCC 19542 assessed as bacterial growth inhibition incubated for 72 hrs by resazurin dye based broth microdilution method
# Type: functional
# Settings: not given
row,SMILES,MIC
1,C#CCNC(=O)C1=CC(c2cc(Br)ccc2F)N2N=CNC2=N1 (stereo not given),2.65 µM
2,CCN(C(=O)C1=CC(c2cc(Br)ccc2F)N2N=CNC2=N1)c1ccccc1 (stereo not given),2.26 µM
3,CC(NC(=O)C1=CC(c2cc(Br)ccc2F)N2N=CNC2=N1)c1ccccc1 (stereo not given),2.26 µM

# Test system: Mycolicibacterium fortuitum
# Test: Antibacterial activity against Mycobacterium fortuitum ATCC 6841 assessed as reduction in bacterial growth incubated for 72 hrs by Mueller-Hinton broth micro-dilution based assay
# Type: functional
# Settings: not given
row,SMILES,MIC
1,C[C@@H](N)CCCCCC/C=C\CCCCCCCCN,44 µM
2,C=C[C@@H](O)C#CC#C[C@@H](O)/C=C\CCCCCCC [FALCARINDIOL],30.4 µM
3,CCCCCCCC/C=C\CCCCCCCC(=O)O [OLEIC ACID],56.6 µM
4,CCCCCCCCCCC/C=C\C=C\C(O)CC(=O)O (stereo not given),0.11 µM
5,CCCCC/C=C\C/C=C\CCCCCCCC(=O)O [LINOLEIC ACID],14.3 µM
6,CCCCCCCCCCCCCCCC(=O)O [PALMITIC ACID],2 µM
7,C=C[C@H](O)C#CC#CC/C=C\CCCCCCC [FALCARINOL],16.4 µM

# Test system: Mycolicibacterium fortuitum
# Test: Antibacterial activity against Mycobacterium fortuitum ATCC 6841 assessed as reduction in bacterial growth by micro-dilution method
# Type: functional
# Settings: not given
row,SMILES,MIC
1,C=C[C@@](C)(O)CC/C=C(/C)CCC=C(C)C [NEROLIDIOL],44.5 µM
2,Cc1cc(O)c([C@]2(C)CC[C@@H]3C[C@@]32C)cc1Br,42.3 µM
3,C=C1[C@H]2CC[C@@H]3[C@H]2C(C)(C)CCC[C@]13C [LONGIFORENE],> 0.63 µM
4,C=C1C[C@@]23CC[C@H]4[C@@](C)(CCC[C@@]4(C)C=O)[C@@H]2CC[C@@H]1C3,51.6 µM
5,C=C1[C@@H](C)CC[C@@]2(C)[C@H]1CC=C(C=O)[C@]2(O)C=O,64.4 µM
6,CC(C)c1c(O)ccc2c1CC[C@H]1C(C)(C)CCC[C@]21C [TOTAROL],14 µM

# Test system: Mycolicibacterium fortuitum
# Test: Antimycobacterial activity against Mycobacterium fortuitum PCM 672 assessed as reduction in microbial growth incubated for 72 hrs by resazurin dye based broth microdilution method
# Type: functional
# Settings: not given
row,SMILES,MIC
1,Cc1noc(N)c1C(=O)N/N=C/c1ccncc1,0.14 µM
2,Cc1noc(N)c1C(=O)N/N=C/c1ccc(Cl)c(Cl)c1,0.21 µM
3,Cc1noc(N)c1C(=O)N/N=C/c1ccc([N+](=O)[O-])cc1,51.1 µM
4,Cc1noc(N)c1C(=O)N/N=C/c1ccc(Cl)cc1Cl,55.3 µM
5,Cc1noc(N)c1C(=O)N/N=C/c1ccc(C(F)(F)F)cc1,0.21 µM
6,COc1ccc(/C=N/NC(=O)c2c(C)noc2N)cc1,0.24 µM

# Test system: Mycolicibacterium fortuitum
# Test: Antimycobacterial activity against Mycobacterium fortuitum ATCC 6841 assessed as reduction in microbial growth incubated for 72 hrs by resazurin dye based broth microdilution method
# Type: functional
# Settings: not given
row,SMILES,MIC
1,CC(=O)NC[C@H]1CN(c2ccc(N3CCN(c4ccc5nccn5n4)CC3)c(F)c2)C(=O)O1,2.2 µM
2,O=[N+]([O-])c1ccc(C2=NOC(c3ccc(N4CCC(Oc5ccc(OC(F)(F)F)cc5)CC4)cc3)C2)o1 (stereo not given),12.1 µM
3,COc1cc([C@](O)(CCN(C)C)[C@@H](c2cc3cc(Br)ccc3nc2OC)c2ccnc(OC)c2OC)cc(OC)n1,0.9 µM
4,COc1ncc(-c2ccc(Cl)cc2)cc1[C@@H](c1ccccc1)[C@@](O)(CCN(C)C)c1cccc2ccccc12 [SUDAPYRIDINE],15 µM
5,COc1ncccc1Nc1cc2nc3ccccc3n(-c3ccc(OC(F)(F)F)cc3)c-2c/c1=N\C1CCC(OC)CC1 (stereo not given),1.17 µM
6,CC(=O)NC[C@H]1CN(c2ccc(-c3ccc(-c4nnnn4C)nc3)c(F)c2)C(=O)O1,0.61 µM
7,COc1c(N2CCN(c3ccc(N4C[C@H](CNC(C)=O)OC4=O)cc3F)CC2)cnc2nccn12,2.07 µM
8,O=c1ccc2ncc(=O)n3c2n1C[C@H]3CN1CCC(NCc2cc3c(cn2)OCCC3)CC1 [GEPOTIDACIN],4.46 µM

# Test system: Mycolicibacterium fortuitum
# Test: Antibacterial activity against Mycobacterium fortuitum ATCC 6841 assessed as bacterial growth inhibition incubated for 72 hrs by CLSI protocol based micro-dilution method
# Type: functional
# Settings: not given
row,SMILES,MIC
1,CC(=O)NC[C@H]1CN(c2ccc(N3CCOCC3)c(F)c2)C(=O)O1 [LINEZOLID],23.7 µM
2,Cc1cc(NS(=O)(=O)c2ccc(N)cc2)no1 [SULFAMETHOXAZOLE],126 µM
3,CC[C@H]1OC(=O)[C@H](C)[C@@H](O[C@H]2C[C@@](C)(OC)[C@@H](O)[C@H](C)O2)[C@H](C)[C@@H](O[C@@H]2O[C@H](C)C[C@H](N(C)C)[C@H]2O)[C@](C)(OC)C[C@@H](C)C(=O)[C@H](C)[C@@H](O)[C@]1(C)O [CLARITHROMYCIN],1.34 µM
4,CC(C)/N=c1\cc2n(-c3ccc(Cl)cc3)c3ccccc3nc-2cc1Nc1ccc(Cl)cc1 [CLOFAZIMINE],4.22 µM
5,C[C@H]1c2cccc(O)c2C(=O)C2=C(O)[C@]3(O)C(=O)C(C(N)=O)=C(O)[C@@H](N(C)C)[C@@H]3[C@@H](O)[C@@H]21 [DOXYCYCLINE ANHYDROUS],0.56 µM
6,NCC[C@H](O)C(=O)N[C@@H]1C[C@H](N)[C@@H](O[C@H]2O[C@H](CN)[C@@H](O)[C@H](O)[C@H]2O)[C@H](O)[C@H]1O[C@H]1O[C@H](CO)[C@@H](O)[C@H](N)[C@H]1O [AMIKACIN],3.41 µM

# Test system: Mycolicibacterium fortuitum
# Test: Antimycobacterial activity against Mycobacterium fortuitum NCTC 10394 assessed as reduction in microbial growth incubated for 72 hrs by resazurin dye based broth microdilution method
# Type: functional
# Settings: not given
row,SMILES,MIC
1,O=c1ccc2nccc3c4cccc(O)c4n1c23,67.7 µM
2,C[C@@H]([C@H](NC(=O)[C@H](CC1CCCCC1)NC(=O)N[C@@H](Cc1c[nH]c2ccccc12)C(=O)NCC(C)(C)C)C(=O)NC[C@H]1C[C@@H](O)[C@H](n2ccc(=O)[nH]c2=O)O1)N(C)C(=O)CN,1 µM
